Reference: ChEMBL document CHEMBL2169873, “Binding sites of retinol and retinoic acid with serum albumins” (Eur J Med Chem, 2012)

Tests used:
Type in all cases: ADME
Albumin [1] = molecular target: T1, Albumin (Bos taurus, UniProt P02769); assay: Binding affinity to bovine serum albumin alpha-helix (1660 to 1650 cm'-1) at 0.5 mM after 2 hrs by FTIR spectroscopic analysis; conditions: cattle, isolated protein, 500 µM
Albumin [2] = molecular target: T1, Albumin; assay: Binding affinity to bovine serum albumin at 0.125 mM after 2 hrs by FTIR spectroscopic analysis; conditions: cattle, isolated protein, 125 µM
Albumin [3] = molecular target: T1, Albumin; assay: Binding affinity to bovine serum albumin turn (1680 to 1660 cm'-1) at 0.5 mM after 2 hrs by FTIR spectroscopic analysis; conditions: cattle, isolated protein, 500 µM
Albumin [4] = molecular target: T1, Albumin; assay: Binding affinity to bovine serum albumin beta-sheet at 0.5 mM by circular dichroism analysis; conditions: cattle, isolated protein, 500 µM
Albumin [5] = molecular target: T1, Albumin; assay: Binding affinity to bovine serum albumin alpha-helix at 0.5 mM by circular dichroism analysis; conditions: cattle, isolated protein, 500 µM
Albumin [6] = molecular target: T1, Albumin; assay: Binding affinity to bovine serum albumin random coil at 0.5 mM by circular dichroism analysis; conditions: cattle, isolated protein, 500 µM
Albumin [7] = molecular target: T1, Albumin; assay: Binding affinity to bovine serum albumin turn at 0.5 mM by circular dichroism analysis; conditions: cattle, isolated protein, 500 µM
Albumin [8] = molecular target: T1, Albumin; assay: Binding affinity to bovine serum albumin beta-antiparallel (1692 to 1680 cm'-1) at 0.5 mM after 2 hrs by FTIR spectroscopic analysis; conditions: cattle, isolated protein, 500 µM
Albumin [9] = molecular target: T1, Albumin; assay: Binding affinity to bovine serum albumin beta-sheet (1640 to 1610 cm'-1) at 0.5 mM after 2 hrs by FTIR spectroscopic analysis; conditions: cattle, isolated protein, 500 µM
Albumin [10] = molecular target: T1, Albumin; assay: Binding affinity to bovine serum albumin by fluorescence quenching assay; conditions: cattle, isolated protein
Albumin [11] = molecular target: T1, Albumin; assay: Binding affinity to bovine serum albumin random coil (1648 to 1641 cm'-1) at 0.5 mM after 2 hrs by FTIR spectroscopic analysis; conditions: cattle, isolated protein, 500 µM
Albumin [12] = molecular target: T1, Albumin; assay: Binding affinity to bovine serum albumin by fluorescence spectroscopy analysis; conditions: cattle, isolated protein
Albumin [13] = molecular target: T1, Albumin; assay: Binding affinity to bovine serum albumin random coil (1648 to 1641 cm'-1) at 0.1 mM after 2 hrs by FTIR spectroscopic analysis; conditions: cattle, isolated protein, 100 µM
Albumin [14] = molecular target: T1, Albumin; assay: Binding affinity to bovine serum albumin beta-sheet (1640 to 1610 cm'-1) at 0.1 mM after 2 hrs by FTIR spectroscopic analysis; conditions: cattle, isolated protein, 100 µM
Albumin [15] = molecular target: T1, Albumin; assay: Binding affinity to bovine serum albumin turn (1680 to 1660 cm'-1) at 0.1 mM after 2 hrs by FTIR spectroscopic analysis; conditions: cattle, isolated protein, 100 µM
Albumin [16] = molecular target: T1, Albumin; assay: Binding affinity to bovine serum albumin beta-antiparallel (1692 to 1680 cm'-1) at 0.1 mM after 2 hrs by FTIR spectroscopic analysis; conditions: cattle, isolated protein, 100 µM
Albumin [17] = molecular target: T1, Albumin; assay: Binding affinity to bovine serum albumin alpha-helix (1660 to 1650 cm'-1) at 0.1 mM after 2 hrs by FTIR spectroscopic analysis; conditions: cattle, isolated protein, 100 µM

T1 sequence (P02769 whole entry): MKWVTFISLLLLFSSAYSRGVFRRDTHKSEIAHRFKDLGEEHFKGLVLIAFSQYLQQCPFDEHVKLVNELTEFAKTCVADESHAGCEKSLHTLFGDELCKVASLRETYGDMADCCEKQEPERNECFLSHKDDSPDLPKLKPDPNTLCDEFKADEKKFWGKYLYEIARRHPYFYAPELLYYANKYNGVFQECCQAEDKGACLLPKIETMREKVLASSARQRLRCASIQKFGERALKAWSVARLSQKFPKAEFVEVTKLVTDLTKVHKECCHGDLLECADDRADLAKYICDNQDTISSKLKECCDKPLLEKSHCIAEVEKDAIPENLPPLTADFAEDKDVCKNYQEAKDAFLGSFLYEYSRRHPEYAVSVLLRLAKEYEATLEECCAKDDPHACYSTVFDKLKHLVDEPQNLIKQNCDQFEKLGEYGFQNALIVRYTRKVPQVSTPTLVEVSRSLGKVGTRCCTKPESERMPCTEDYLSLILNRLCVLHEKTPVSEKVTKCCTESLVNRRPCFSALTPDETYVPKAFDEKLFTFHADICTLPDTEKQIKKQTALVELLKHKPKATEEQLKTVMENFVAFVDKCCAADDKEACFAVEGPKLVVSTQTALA

SMILES | Activity (Albumin [1]) [%] | Activity (Albumin [2]) | Activity (Albumin [3]) [%] | Activity (Albumin [4]) [%] | Activity (Albumin [5]) [%] | Activity (Albumin [6]) [%] | Activity (Albumin [7]) [%] | Activity (Albumin [8]) [%] | Activity (Albumin [9]) [%] | Kq (Albumin [10]) [×10¹³ /M/sec] | Activity (Albumin [11]) [%] | K (Albumin [12]) [×10⁶ /M] | Activity (Albumin [13]) [%] | Activity (Albumin [14]) [%] | Activity (Albumin [15]) [%] | Activity (Albumin [16]) [%] | Activity (Albumin [17]) [%]
CC1=C(/C=C/C(C)=C/C=C/C(C)=C/CO)C(C)(C)CCC1 [RETINOL] | 36 | Active | 15 | 16 | 52 | 18 | 14 | 10 | 19 | 4.5 | 20 | 5.3 | – | – | – | – | –
CC1=C(/C=C/C(C)=C/C=C/C(C)=C/C(=O)O)C(C)(C)CCC1 [TRETINOIN] | – | Active | – | 18 | 44 | 20 | 18 | – | – | 2.5 | – | 2.3 | 25 | 15 | 27 | 7 | 26
